Assay results reported in patent publication US9096555B2, “Methods for treating vascular leak syndrome” (Aerpio Therapeutics, Inc., priority 2009, dated 2015).
“Also recorded” adds a separate entry of the source.

How the values were obtained:
[1] = test system: LPS-induced renal vascular leak; assay: LPS-induced renal vascular leak, 70 kDa fluorescent fixable dextran; format: in vivo; conditions: mice; LPS at time 0, D91 at 1, 6 and 16 h; sacrifice at 24 hours; FIG. 10c
Experimental: FIG. 10a is a micrograph of a renal section from a mouse treated with vehicle control that is subsequently injected with 70 kDa fluorescent fixable dextran by intravenous catheter 2 minutes prior to sacrifice. G indicates glomerular capillaries where the dye should normally be contained.
FIG. 10b is a micrograph showing the vascular leakage in cells of a renal section from a mouse treat with LPS that is subsequently injected with 70 kDa fluorescent fixable dextran by intravenous catheter 2 minutes prior to sacrifice.
The pattern of staining in this section is similar to 10a.
Phosphatase inhibition by the disclosed PTP-β inhibitors reduces LPS-induced renal vascular leak. Mice were injected with LPS at time 0 and D91 or vehicle at 1, 6, and 16 h. Two minutes prior to sacrifice at 24 hours 70 kDa fluorescent fixable dextrans were administered by intravenous catheter. […] FIG. 10a is a micrograph of the control sample for the 70 kDa sample wherein the Letter “G” represents glomerular capillaries where the dye should normally be contained. FIG. 10b represents a renal section taken from an LPS treated animal and FIG. 10c represents a renal section taken from an animal treated with LPS and D91.

[2] = test system: IL-2 induced hypotension and death; assay: Rescue of mice from IL-2 induced hypotension and death (systolic blood pressure); format: in vivo; conditions: C3H/HeN female mice; 400,000 IU of IL-2 and 40 mg/kg D91; after 5 days of treatment; FIG. 5
Experimental: A represents the systolic blood pressure of C3H/HeN female mice treated with vehicle control. […] Measurements were taken after 5 days of treatment.
A represents 0 mg/kg D91, B represents 1 mg/kg D91, C represents 3 mg/kg D91, D represents 10 mg/kg D91, and E represents 30 mg/kg D91.

[3] = test system: pAKT and pERK1/2 in EA.hy962 cells; assay: Western blot analysis of pAKT and pERK1/2 in EA.hy962 cells; format: cell-based; conditions: EA.hy962 cells cultured with varying amounts of D91 for 10 minutes; FIG. 9a
Experimental: FIG. 9a depicts a Western blot analysis showing the increase in pAKT and pERK1/2 when EA.hy962 cells were cultured in the presence of varying amounts of […] for 10 minutes. FIG. 9b depicts a Western blot analysis showing the levels of pAKT, pERK1/2 and β-Actin when EA.hy962 cells were cultured in the presence of 10 μg/mL […] from start (T=0) to 120 minutes.

brain edema after tMCAO = assay: Vasogenic edema after transient focal cerebral ischemia (tMCAO); format: in vivo, Sprague-Dawley rats; conditions: rats; tMCAO 60 min; 15 mg/kg t.i.d. s.c. starting 1 hour after stroke onset; after the 48 hour MRI
Experimental: 30 adult male Sprague-Dawley rats purchased from Charles River, Germany and weighing 250-330 g were used for the experiment. Animals were housed at a standard temperature (22±1° C.) and in a light-controlled environment (lights on from 7 am to 8 pm) with ad libitum access to food and water.
Animals were grouped as follows:
• Group A: 15 rats treated with Vehicle (2 mL/kg, t.i.d., s.c.) starting 1 hour after stroke onset • Group B: 15 rats treated with AKB-9778-AS (15 mg/kg, t.i.d., s.c.) starting 1 hour after stroke onset tMCAO
Transient focal cerebral ischemia was produced by MCA occlusion in male Sprague-Dawley rats according to Koizumi with modifications (Koizumi et al., Jpn. J. Stroke 8:1-8, 1986). […] The rats were carefully monitored for possible post-surgical complications after the tMCAO. […]
D91 or vehicle was administered s.c. three times a day. […] The body weight of each animal is measured daily. […]
Tissue viability and vasogenic edema was determined using absolute T2 MRI. […] In addition to absolute T2, spin density (amount of MRI visible protons, indicator of vasogenic edema) ratio of ipsi and contralateral ROI's was determined by extrapolating signal intensity at TE=0 from multiple TE data (intercept of T2 fitting).
For the determination of infarct volume, the same acquired T2-weighted images were analyzed using in-house written Matlab based software for morphometric measurement. […]

[4] = test system: LPS-induced acute kidney injury; assay: Liposaccharide (LPS) induced vascular leak model: acute kidney injury (BUN, renal neutrophil infiltration); format: in vivo; conditions: male C57BL6 mice
Experimental: FIG. 7 depicts the level of blood urine nitrogen (BUN) in male C57BL6 mice injected i.p. with 0.2 mg E. coli lipopolysaccharides per 25 g body weight at 0 hours. Line (◯) represents mice receiving only LPS and line (●) represents mice receiving LPS and 50 mg/kg of D91 at 0, 8, and 16 hours.
FIG. 8 depicts the level of LPS-induced renal neutrophil infiltration at 24 hours in male C57BL6 mice injected i.p. with 0.2 mg E. coli lipopolysaccharides per 25 g body weight at 0 hours. A depicts the neutrophil infiltration in sham (conrol), B depicts the neutrophil infiltration in male C57BL6 mice injected i.p. with 0.2 mg E. coli lipopolysaccharides per 25 g body weight and 50 mg/kg of D91, C depicts mice receiving only LPS.
The following liposaccharide induced vascular leakage model can be used to confirm the ability of the disclosed compounds to decrease the effects of vascular leak syndrome caused by pathogens. […]
Male C57BL6 mice, 9 to 10 weeks old, were injected i.p. with 0.2 mg E. Coli lipopolysaccharide per 25 g body weight at time 0. […] Serum samples were analyzed for blood urea nitrogen (BUN) as a marker of kidney function.
Tissue samples from the animals were analyzed by high powered field microscopy to determine the number of polymorphonuclear leukocytes present.

IL-2 induced VLS = assay: IL-2 induced vascular leak syndrome in mice (blood pressure, shock, mortality); format: in vivo; conditions: then 20 mg/kg for 3 days
Experimental: Twenty-five mice were used for the following experiment. Five are selected as the control and received no treatment. The remaining twenty mice were divided into four groups of five mice each and dosed as follows over a period of 5 days:
Tie-2 signal amplifier at 40 mg/kg for the first 2 days, then at 20 mg/kg for 3 days.
(VSL mechanistic analysis.

COC(=O)N[C@@H](Cc1ccccc1)C(=O)N[C@@H](Cc1ccc(NS(=O)(=O)O)cc1)c1csc(-c2cccs2)n1 [Compound D91, 4-{(S)-2-[(S)-2-(methoxycarbonylamino)-3-phenylpropanamido]-2-[2-(thiophen-2-yl)thiazol-4-yl]ethyl}phenylsulfamic acid]
extrusion of 70 kDa fluorescent dextran dye beyond the small peritubular capillaries (renal vascular leak) [1]: vascular integrity is preserved; also recorded: reduced
rescue from IL-2 induced hypotension and death (systolic blood pressure) [2]: rescue of mice from IL-2 induced hypotension and death
pAKT and pERK1/2 (Western blot) [3]: increase
brain tissue wet weight in ischemic hemisphere (edema) (brain edema after tMCAO): significantly lower
blood urine nitrogen (BUN) level ([4]; LPS 0.2 mg per 25 g i.p., D91 50 mg/kg at 0, 8 and 16 hours, at 24 hours, FIG. 7): less than 80 mg/dL
number of PMN cells present (renal neutrophil infiltration), high powered field microscopy ([4]; LPS plus D91 50 mg/kg, 24 hours, average, FIG. 8): 12
blood pressure (IL-2 induced VLS; IL-2 180,000 or 400,000 IU for 5 days plus D91 40 mg/kg first 2 days, FIG. 1): little effect on blood pressure
clinical symptoms of shock (IL-2 induced VLS; high dose IL-2 (400,000 IU, 5 days) plus D91 40 mg/kg first 2 days, FIG. 2): no signs of shock
IL-2 induced mortality (IL-2 induced VLS; high dose IL-2 (400,000 IU, 5 days) plus D91 40 mg/kg first 2 days, FIG. 3): survived
